In patent US20110092367A1, “Herbicidal Compositions Comprising 4-amino-3,6-dichloropyridine-2-carboxylic Acid” (BASF SE, priority 2008, published 2011):

Columns and labels:
Stellaria media = experiment: Field trial Example 1, successive application: damage on STEME; format: in vivo
Source text: Aminiopyralid was used as commercial aquaeous solution having an active ingredient concentration of 240 g/l (Milestone™). Metazachlor was used as a commercial suspension concentrate having an active ingredient concentration of 500 g/l (Butisan S®).
The performance of aminopyralid applied as an alone treatment at 15, 30 and 50 g a.i./ha applied as an early post emergence treatment and an post emergence treatment in comparison to two different applications including metazachlor at 500 g a.i./ha as an early post emergence application in succession of aminopyralid as a post emergence application at 15 and 30 g a.i./ha was assessed in an oilseed rape field trials.
The early post emergence treatment was applied by means of fine distributed nozzles at the growth stage (GS) of the crop BBCH 11-12.
The post emergence treatment was applied by means of fine distributed nozzles at the growth stage (GS) of the crop BBCH 13-14.
The test period extended over the autumn and spring season (205 days).
In the following experiments, the herbicidal activity for the individual herbicide compounds (solo application) and of the herbicidal succession was assessed 4 times:
(§1) The evaluation for the damage on undesired weeds caused by the chemical compositions was carried out using a scale from 0 to 100%, compared to the untreated control plants. Here, 0 means no damage and 100 means complete destruction of the plants.

Matricaria chamomilla = experiment: Greenhouse trial, post-emergence: MATCH; format: in vivo; settings: read-out: % activity, MATCH
Experimental: The test plants have been seeded, separately for each species, in plastic containers in sandy loamy soil containing 5% organic matter.
For the post emergence treatment, the plants were first grown to the 2 leaf station (GS 12). Here, the herbicidal compositions were suspended or emulsified in water as distribution medium and sprayed using finely distributing nozzels.
The plants have been cultivated due to there individual requirements at 10-25° C. and 20-35° C. The plants were irrigated due to there necessity.
In the following experiments, the herbicidal activity for the individual herbicide compounds (solo and mixture applications), the herbicidal succession was assessed 14 days after treatment (DAT).
as §1
Calculation of expected activity of binary mixtures was done by using the Colby-Formula according to Example 1.
E=(X+Y+Z)−(X*Y+X*Z+Y*Z/100)+(X*Y*Z/1000)
Tables 6 to 10 relate to the herbicidal activity, in greenhouse trials, of the individual actives and the combination in post-emergence application 14 DAT.

## Nc1cc(Cl)nc(C(=O)O)c1Cl [aminopyralid, 4-amino-3,6-dichloropyridine-2-carboxylic acid]
Stellaria media; 15 g ai/ha, treatment A early post emergence, DAT 25/DALT 10
  damage on STEME: 32%
Stellaria media; 15 g ai/ha, treatment A early post emergence, DAT 65/DALT 50
  damage on STEME: 52%
Stellaria media; 15 g ai/ha, treatment A early post emergence, DAT 176/DALT 161
  damage on STEME: 93%
Stellaria media; 15 g ai/ha, treatment B post emergence, DAT 25/DALT 10
  damage on STEME: 12%
Stellaria media; 15 g ai/ha, treatment B post emergence, DAT 65/DALT 50
  damage on STEME: 50%
Stellaria media; 15 g ai/ha, treatment B post emergence, DAT 176/DALT 161
  damage on STEME: 77%
Stellaria media; 30 g ai/ha, treatment A early post emergence, DAT 25/DALT 10
  damage on STEME: 90%
Stellaria media; 30 g ai/ha, treatment A early post emergence, DAT 65/DALT 50
  damage on STEME: 97%
Stellaria media; 30 g ai/ha, treatment A early post emergence, DAT 176/DALT 161
  damage on STEME: 98%
Stellaria media; 30 g ai/ha, treatment B post emergence, DAT 25/DALT 10
  damage on STEME: 38%
Stellaria media; 30 g ai/ha, treatment B post emergence, DAT 65/DALT 50
  damage on STEME: 68%
Stellaria media; 30 g ai/ha, treatment B post emergence, DAT 176/DALT 161
  damage on STEME: 95%
Stellaria media; 50 g ai/ha, treatment A early post emergence, DAT 25/DALT 10
  damage on STEME: 100%
Stellaria media; 50 g ai/ha, treatment A early post emergence, DAT 65/DALT 50
  damage on STEME: 100%
Stellaria media; 50 g ai/ha, treatment A early post emergence, DAT 176/DALT 161
  damage on STEME: 100%
Stellaria media; 50 g ai/ha, treatment B post emergence, DAT 25/DALT 10
  damage on STEME: 67%
Stellaria media; 50 g ai/ha, treatment B post emergence, DAT 65/DALT 50
  damage on STEME: 88%
Stellaria media; 50 g ai/ha, treatment B post emergence, DAT 176/DALT 161
  damage on STEME: 95%
Stellaria media; aminopyralid 15 g ai/ha, treatment A, DAT 205/DALT 190
  damage on STEME: 93%
Stellaria media; aminopyralid 15 g ai/ha, treatment B, DAT 205/DALT 190
  damage on STEME: 78%
Stellaria media; aminopyralid 30 g ai/ha, treatment A, DAT 205/DALT 190
  damage on STEME: 100%
Stellaria media; aminopyralid 30 g ai/ha, treatment B, DAT 205/DALT 190
  damage on STEME: 98%
Stellaria media; aminopyralid 50 g ai/ha, treatment A, DAT 205/DALT 190
  damage on STEME: 100%
Stellaria media; aminopyralid 50 g ai/ha, treatment B, DAT 205/DALT 190
  damage on STEME: 97%
Matricaria chamomilla
  inhibition at 5 g/ha: 75%
  inhibition at 10 g/ha: 85%
